These results are taken from PubChem BioAssay (NCI).

Test systems include A498 renal; CAKI-1 renal; CCRF-CEM leukemia; HCT-15 colon; HT29 colon; K-562 leukemia; KM12 colon; MDA-N; NCI-H460 lung; OVCAR-5 ovarian; PC-3 prostate; SK-MEL-2 melanoma; SK-OV-3 ovarian; SN12C renal; SNB-75 CNS; TK-10 renal; UACC-62 melanoma.
Assay in all cases: inhibition of tumour cell growth, NCI panel, 48 h

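How tested: cells in 96-well plates exposed to compound for 48 hours at five concentrations. TGI: concentration producing complete growth inhibition.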 A value given as a limit tells only on which side of the number the result lay.

Regarding `C=CC1(CBr)CCC(C(C)(C)Br)O1` (stereo unspecified), the TGI with A498 renal is 33.5 µM; in the experiment with CAKI-1 renal, 16.5 µM; with CCRF-CEM leukemia it was 6.51 µM; in the experiment with HCT-15 colon, 23.8 µM; with HT29 colon it was 14.4 µM; with K-562 leukemia it was more than 25.9 µM. For the same compound, the TGI is 26.1 µM with KM12 colon; 22.7 µM in the experiment with MDA-N; 27.7 µM in the experiment on NCI-H460 lung; 27.9 µM with OVCAR-5 ovarian; 24.5 µM in the experiment on PC-3 prostate; 28.1 µM in the experiment on SK-MEL-2 melanoma. Further, the TGI with SK-OV-3 ovarian is 29 µM; in the experiment on SN12C renal it was 33.1 µM; in the experiment on SNB-75 CNS it was 20.4 µM; in the experiment with TK-10 renal, 28.5 µM; with UACC-62 melanoma, 22.3 µM.

Regarding `CCOC(=O)C1(Cc2ccccc2)CCN(C(=O)c2ccccc2)C2C1C2(Cl)Cl` (stereo unspecified), the TGI with A498 renal was 40 µM; in the experiment with CAKI-1 renal, 75 µM; in the experiment with CCRF-CEM leukemia it was 54.1 µM; in the experiment with HCT-15 colon it was more than 100 µM; in the experiment with HT29 colon it was 34.8 µM; in the experiment with K-562 leukemia it was more than 100 µM. For the same compound, the TGI in the experiment on KM12 colon stood at 94.9 µM; with MDA-N, 39.6 µM; in the experiment on NCI-H460 lung, 35.9 µM; in the experiment with OVCAR-5 ovarian, 98.4 µM; in the experiment on PC-3 prostate, 50.1 µM; with SK-MEL-2 melanoma, 31.1 µM. The TGI in the experiment with SK-OV-3 ovarian is more than 100 µM; in the experiment with SN12C renal, 32.4 µM; in the experiment on SNB-75 CNS, 62.6 µM; with TK-10 renal it was 59.8 µM; in the experiment with UACC-62 melanoma, 27.2 µM.

With `CCOC(=O)NNC1(SC)NC(=O)c2c(cc(Cl)oc2=O)O1` (stereo unspecified), the TGI with A498 renal came to 29.2 µM; in the experiment with CAKI-1 renal, 8.02 µM; in the experiment with CCRF-CEM leukemia, 10.5 µM; in the experiment on HCT-15 colon it was 5.28 µM; in the experiment on HT29 colon it was 5.26 µM; with K-562 leukemia, 9.07 µM. The TGI in the experiment with KM12 colon was determined as 23.6 µM; with MDA-N, 22.2 µM; in the experiment on NCI-H460 lung, 23.7 µM; with OVCAR-5 ovarian it was 25.2 µM; in the experiment on PC-3 prostate, 13.2 µM; with SK-MEL-2 melanoma, 24 µM. In addition, the TGI is 26.8 µM in the experiment on SK-OV-3 ovarian; 14.7 µM with SN12C renal; 22.2 µM with SNB-75 CNS; 10.1 µM in the experiment on TK-10 renal; 25.1 µM in the experiment with UACC-62 melanoma.

As to `COc1ccc2c(-c3ccc(O)cc3)c(Oc3ccccc3)c(=O)oc2c1`, the TGI was more than 62 µM in the experiment with A498 renal; more than 100 µM in the experiment with CAKI-1 renal; more than 100 µM in the experiment on CCRF-CEM leukemia; more than 100 µM in the experiment on HCT-15 colon; 98.2 µM in the experiment with HT29 colon; more than 100 µM in the experiment with K-562 leukemia. Moreover, the TGI in the experiment on KM12 colon, in the experiment with MDA-N, in the experiment with NCI-H460 lung, with OVCAR-5 ovarian, in the experiment with PC-3 prostate and in the experiment on SK-MEL-2 melanoma was more than 100 µM each time. For the same compound, the TGI with SK-OV-3 ovarian was more than 100 µM; in the experiment on SN12C renal it was more than 42.1 µM; in the experiment on SNB-75 CNS it was more than 66.5 µM; in the experiment on TK-10 renal, 18.1 µM; with UACC-62 melanoma, more than 100 µM.

On to `COc1ncc(C#CC(=O)c2ccccc2OC)c(OC)n1`, for which the TGI is 35.2 µM with A498 renal; 4.17 µM in the experiment with CAKI-1 renal; 1.58 µM with CCRF-CEM leukemia; 2.08 µM in the experiment with HCT-15 colon; 3.84 µM in the experiment with HT29 colon; more than 42.9 µM in the experiment with K-562 leukemia. Also, the TGI with KM12 colon turned out to be 18.4 µM; with MDA-N, 3.41 µM; in the experiment with NCI-H460 lung it was 15.7 µM; in the experiment with OVCAR-5 ovarian, 8.23 µM; with PC-3 prostate, 4.3 µM; in the experiment with SK-MEL-2 melanoma, 6.4 µM. Moreover, the TGI is more than 60.4 µM in the experiment with SK-OV-3 ovarian; 1.91 µM with SN12C renal; 10.2 µM in the experiment on SNB-75 CNS; 2.62 µM in the experiment with TK-10 renal; 7.49 µM in the experiment with UACC-62 melanoma.

As to `OCC1CCCCN1Cc1nc2ccc(Cl)cc2[nH]1` (stereo unspecified), the TGI in the experiment with A498 renal, in the experiment on CAKI-1 renal, with CCRF-CEM leukemia, with HCT-15 colon, with HT29 colon and with K-562 leukemia was more than 100 µM in each case. For the same compound, the TGI in the experiment on KM12 colon, in the experiment on MDA-N, in the experiment with NCI-H460 lung, with OVCAR-5 ovarian, with PC-3 prostate and in the experiment with SK-MEL-2 melanoma was more than 100 µM each time. Moreover, the TGI in the experiment on SK-OV-3 ovarian, with SN12C renal, in the experiment with SNB-75 CNS, with TK-10 renal and in the experiment on UACC-62 melanoma was more than 100 µM each time.

In the case of `Cc1ccc(NC(=S)NNC(=O)c2cc(-c3ccccc3)nc3ccccc23)cc1C`, the TGI in the experiment on A498 renal was 34.2 µM; in the experiment on CAKI-1 renal, more than 100 µM; with CCRF-CEM leukemia it was 52 µM; with HCT-15 colon it was 60.5 µM; in the experiment with HT29 colon it was 49.2 µM; in the experiment with K-562 leukemia, 79.5 µM. The TGI was determined as 80 µM in the experiment on KM12 colon; 40 µM with MDA-N; 38.7 µM in the experiment on NCI-H460 lung; 76.9 µM in the experiment on OVCAR-5 ovarian; 42.9 µM in the experiment on PC-3 prostate; 37.3 µM in the experiment on SK-MEL-2 melanoma. The TGI in the experiment with SK-OV-3 ovarian was 32.9 µM; in the experiment with SN12C renal, 38.1 µM; in the experiment on SNB-75 CNS, 56.5 µM; in the experiment with TK-10 renal, 63.1 µM; in the experiment with UACC-62 melanoma it was 37 µM.

`CC1C=C(NCC2(CO)CCC2)NC(N)=N1` (stereo unspecified): the TGI with A498 renal, in the experiment with CAKI-1 renal, with CCRF-CEM leukemia, with HCT-15 colon, in the experiment with HT29 colon and in the experiment with K-562 leukemia was more than 100 µM in each case. For the same compound, the TGI with KM12 colon, with MDA-N, in the experiment with NCI-H460 lung, in the experiment with OVCAR-5 ovarian, with PC-3 prostate and in the experiment on SK-MEL-2 melanoma was more than 100 µM throughout. Besides, the TGI with SK-OV-3 ovarian, in the experiment with SN12C renal, in the experiment on SNB-75 CNS and in the experiment on UACC-62 melanoma was more than 100 µM each time.

For the compound `COc1ccc(/C=N/n2c(C)n[nH]c2=O)cc1`, the TGI in the experiment on A498 renal, in the experiment on CAKI-1 renal, in the experiment with CCRF-CEM leukemia, in the experiment on HCT-15 colon, in the experiment on HT29 colon and in the experiment on K-562 leukemia was more than 100 µM each time. The TGI in the experiment on KM12 colon, in the experiment on MDA-N, with NCI-H460 lung, in the experiment on OVCAR-5 ovarian, in the experiment on PC-3 prostate and with SK-MEL-2 melanoma was more than 100 µM throughout. Further, the TGI in the experiment with SK-OV-3 ovarian, in the experiment on SN12C renal, in the experiment on SNB-75 CNS and in the experiment with UACC-62 melanoma was more than 100 µM throughout.
